Data taken from patent publication US20040192611A1, “Peptide antioxidants from soy protein” (Kraft Foods Holdings, Inc., priority 2003, published 2004).

Assay: Antioxidant activity of soy-derived peptides isolated by HPLC (assay not specified)
Settings: qualitative statement
Description: In another aspect, the invention is directed to a method of producing a peptide with antioxidant activity. The peptide is made by digesting soy protein isolate (available commercially, e.g., from Protein Technology International, St. Louis, Mo., or using procedures well established in the art) with a protease to produce an aqueous hydrolysate solution. Proteases that may be used for digestion include chymosin, papain, neutrase, promod, and flavozyme and, preferably, either alcalase or corolase. The protease may come from bacterial, plant or fungal sources. The aqueous hydrolysate solution is extracted with an organic solvent, preferably acetone, and the organic phase is selected for further processing. After extraction, solvent may be removed under reduced pressure to concentrate the peptide and the preparation is then fractionated by reverse phase high pressure liquid chromatography (HPLC). Fractions collected during this process may be assayed for antioxidant activity using methods such as those described in the Examples section herein. The identification of fractions containing the peptide may be based upon the presence of antioxidant activity and upon retention time during chromatography. The identity of the peptide within fractions can be confirmed by sequence analysis.
After recovering peptide from the extraction, reverse phase high pressure liquid chromatography may be performed using, for example, a C18 column. […] Fractions collected from the column may be tested for antioxidant activity to identify peaks that are of interest. Finally, specific peptides may be identified by carrying out sequencing experiments.
Fractions with antioxidant activity are collected and subjected to further purification. This is carried out using the mobile phases:
Fractions with antioxidant activity are collected and subject to further purification. In this case, the same mobile phases are used. The flow rate is set at 0.4 ml/min and ultraviolet absorbance is set at 275 nm. The gradient elution program is set as follows: […]

With SWWPF (Glycine max) as the substance, how does the antioxidant activity read?
The antioxidant activity was “found to have antioxidant activity”.

Which antioxidant activity does the source give for WTY here?
Its antioxidant activity is “found to have antioxidant activity”.

Which antioxidant activity does the source give for WWMY (Glycine max) here?
Its antioxidant activity is “found to have antioxidant activity”.
